Patent US20230348442A1, “GALECTIN-3 INHIBITING 2-HYDROXYCYCLOALKANE-1-CARBAMOYL DERIVATIVES” (Idorsia Pharmaceuticals Ltd, priority 2020, published 2023)

Biological target: human Gal-3 (hGal-3) (Homo sapiens (Human), UniProt P17931)
Experiment: competitive binding assay: binding of biotinylated hGal-3 to microplate-adsorbed asialofetuin (ASF), spectrophotometric
Conditions: Activity on hGal-3; mean values of several measurements
Protocol: Evaluation of Compound Inhibitory Activity (IC50)
The inhibitory activity of compounds is determined in competitive binding assays. This spectrophotometric assay measures the binding of biotinylated human Gal-3 (hGal-3) or human Gal-1 (hGal-1), respectively, to a microplate-adsorbed glycoprotein, asialofetuin (ASF) (Proc Natl Acad Sci USA. 2013 Mar. 26; 110(13):5052-7.). Alternatively, and preferably, a human Gal-1 version in which all six cysteines are substituted by serines may be used.
Briefly, compounds are serially diluted in DMSO (working dilutions). ASF-coated 384 well plates are supplemented with 22.8 μL/well of biotinylated hGal-3 or hGal-1 in assay buffer (i.e. 300-1000 ng/mL biotinylated hGal-3 or hGal-1) to which 1.2 μL of compound working dilutions are added and mixed.
Plates are incubated for 3 hours at 4° C., then washed with cold assay buffer (3×50 uL), incubated for 1 hour with 25 μL/well of a streptavidin-peroxidase solution (diluted in assay buffer to 80 ng/mL) at 4° C., followed by further washing steps with assay buffer (3×50 uL). Finally, 25 μL/well of ABTS substrate is added.
The calculated IC50 values may fluctuate depending on the daily assay performance. Fluctuations of this kind are known to those skilled in the art. IC50 values from several measurements are given as mean values.

Sequence of human Gal-3 (hGal-3) (P17931 whole entry): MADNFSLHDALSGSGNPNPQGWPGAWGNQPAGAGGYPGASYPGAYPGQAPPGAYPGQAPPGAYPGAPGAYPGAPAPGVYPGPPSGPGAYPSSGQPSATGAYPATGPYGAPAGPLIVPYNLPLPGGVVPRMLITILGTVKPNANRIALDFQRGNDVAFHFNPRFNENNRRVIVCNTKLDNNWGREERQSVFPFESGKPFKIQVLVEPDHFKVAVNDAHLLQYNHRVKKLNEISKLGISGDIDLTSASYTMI

Structure (SMILES)	IC50
COc1cc(-c2cn([C@H]3[C@@H](O)[C@@H](CO)O[C@@H](C(=O)N(c4cc(Br)cc(C#N)c4)[C@H]4CCC[C@@H]4O)[C@@H]3OC)nn2)cc(F)c1F [Example 1.3.5, (2R,3R,4S,5R,6R)-N-(3-bromo-5-cyanophenyl)-4-(4-(3,4-difluoro-5-methoxyphenyl)-1H-1,2,3-triazol-1-yl)-5-hydroxy-N-((1S,2S)-2-hydroxycyclopentyl)-6-(hydroxymethyl)-3-methoxytetrahydro-2H-pyran-2-carboxamide]	25.4 nM
COc1cc(-c2cn([C@H]3[C@@H](O)[C@@H](CO)O[C@@H](C(=O)N(c4cc(Br)cc(Br)c4)[C@H]4CCC[C@@H]4O)[C@@H]3OC)nn2)cc(F)c1F [Example 1.3.11, (2R,3R,4S,5R,6R)-N-(3,5-dibromophenyl)-4-(4-(3,4-difluoro-5-methoxyphenyl)-1H-1,2,3-triazol-1-yl)-5-hydroxy-N-((1S,2S)-2-hydroxycyclopentyl)-6-(hydroxymethyl)-3-methoxytetrahydro-2H-pyran-2-carboxamide]	28.8 nM
COc1cc(-c2cn([C@H]3[C@@H](O)[C@@H](CO)O[C@@H](C(=O)N(c4cc(Br)cc(Br)c4)[C@@H]4CCC[C@H]4O)[C@@H]3OC)nn2)cc(F)c1F [Example 1.3.11R, (2R,3R,4S,5R,6R)—N-(3,5-dibromophenyl)-4-(4-(3,4-difluoro-5-methoxyphenyl)-1H-1,2,3-triazol-1-yl)-5-hydroxy-N-((1R,2R)-2-hydroxycyclopentyl)-6-(hydroxymethyl)-3-methoxytetrahydro-2H-pyran-2-carboxamide]	277 nM
COc1cc(-c2cn([C@H]3[C@@H](O)[C@@H](CO)O[C@@H](C(=O)N(c4cc(C)cc(Br)c4)[C@H]4CCC[C@@H]4O)[C@@H]3OC)nn2)cc(F)c1F [Example 1.3.12, (2R,3R,4S,5R,6R)-N-(3-bromo-5-methylphenyl)-4-(4-(3,4-difluoro-5-methoxyphenyl)-1H-1,2,3-triazol-1-yl)-5-hydroxy-N-((1S,2S)-2-hydroxycyclopentyl)-6-(hydroxymethyl)-3-methoxytetrahydro-2H-pyran-2-carboxamide]	42.1 nM
COc1cc(-c2cn([C@H]3[C@@H](O)[C@@H](CO)O[C@@H](C(=O)N(c4cc(C)cc(Br)c4)[C@@H]4CCC[C@H]4O)[C@@H]3OC)nn2)cc(F)c1F [Example 1.3.12R, (2R,3R,4S,5R,6R)-N-(3-bromo-5-methylphenyl)-4-(4-(3,4-difluoro-5-methoxyphenyl)-1H-1,2,3-triazol-1-yl)-5-hydroxy-N-((1R,2R)-2-hydroxycyclopentyl)-6-(hydroxymethyl)-3-methoxytetrahydro-2H-pyran-2-carboxamide]	411 nM
CO[C@@H]1[C@@H](n2cc(-c3cc(F)c(C)c(F)c3)nn2)[C@@H](O)[C@@H](CO)O[C@H]1C(=O)N(c1cc(Cl)cc(Cl)c1)[C@H]1CCC[C@@H]1O [Example 1.4.2, (2R,3R,4S,5R,6R)-N-(3,5-dichlorophenyl)-4-(4-(3,5-difluoro-4-methylphenyl)-1H-1,2,3-triazol-1-yl)-5-hydroxy-N-((1S,2S)-2-hydroxycyclopentyl)-6-(hydroxymethyl)-3-methoxytetrahydro-2H-pyran-2-carboxamide]	44.8 nM
CO[C@@H]1[C@@H](n2cc(-c3cc(F)c(C)c(F)c3)nn2)[C@@H](O)[C@@H](CO)O[C@H]1C(=O)N(c1cc(Cl)cc(C#N)c1)[C@H]1CCC[C@@H]1O [Example 1.4.4, (2R,3R,4S,5R,6R)-N-(3-chloro-5-cyanophenyl)-4-(4-(3,5-difluoro-4-methylphenyl)-1H-1,2,3-triazol-1-yl)-5-hydroxy-N-((1S,2S)-2-hydroxycyclopentyl)-6-(hydroxymethyl)-3-methoxytetrahydro-2H-pyran-2-carboxamide]	17.3 nM
CO[C@@H]1[C@@H](n2cc(-c3cc(F)c(C)c(F)c3)nn2)[C@@H](O)[C@@H](CO)O[C@H]1C(=O)N(c1cc(Cl)cc(C#N)c1)[C@@H]1CCC[C@H]1O [Example 1.4.4R, (2R,3R,4S,5R,6R)-N-(3-chloro-5-cyanophenyl)-4-(4-(3,5-difluoro-4-methylphenyl)-1H-1,2,3-triazol-1-yl)-5-hydroxy-N-((1R,2R)-2-hydroxycyclopentyl)-6-(hydroxymethyl)-3-methoxytetrahydro-2H-pyran-2-carboxamide]	74.8 nM
CO[C@@H]1[C@@H](n2cc(-c3cc(F)c(C)c(F)c3)nn2)[C@@H](O)[C@@H](CO)O[C@H]1C(=O)N(c1cc(Br)cc(C#N)c1)[C@H]1CCC[C@@H]1O [Example 1.4.5, (2R,3R,4S,5R,6R)-N-(3-bromo-5-cyanophenyl)-4-(4-(3,5-difluoro-4-methylphenyl)-1H-1,2,3-triazol-1-yl)-5-hydroxy-N-((1S,2S)-2-hydroxycyclopentyl)-6-(hydroxymethyl)-3-methoxytetrahydro-2H-pyran-2-carboxamide]	16.9 nM
CO[C@@H]1[C@@H](n2cc(-c3cc(F)c(Cl)c(F)c3)nn2)[C@@H](O)[C@@H](CO)O[C@H]1C(=O)N(c1cc(Cl)cc(C#N)c1)[C@H]1CCC[C@@H]1O [Example 1.5.4, (2R,3R,4S,5R,6R)-4-(4-(4-chloro-3,5-difluorophenyl)-1H-1,2,3-triazol-1-yl)-N-(3-chloro-5-cyanophenyl)-5-hydroxy-N-((1S,2S)-2-hydroxycyclopentyl)-6-(hydroxymethyl)-3-methoxytetrahydro-2H-pyran-2-carboxamide]	36.7 nM
CO[C@@H]1[C@@H](n2cc(-c3cc(F)c(Cl)c(F)c3)nn2)[C@@H](O)[C@@H](CO)O[C@H]1C(=O)N(c1cc(Cl)cc(C#N)c1)[C@@H]1CCC[C@H]1O [Example 1.5.4R, (2R,3R,4S,5R,6R)-4-(4-(4-chloro-3,5-difluorophenyl)-1H-1,2,3-triazol-1-yl)-N-(3-chloro-5-cyanophenyl)-5-hydroxy-N-((1R,2R)-2-hydroxycyclopentyl)-6-(hydroxymethyl)-3-methoxytetrahydro-2H-pyran-2-carboxamide]	153 nM
CO[C@@H]1[C@@H](n2cc(-c3cc(F)c(Cl)c(F)c3)nn2)[C@@H](O)[C@@H](CO)O[C@H]1C(=O)N(c1cc(Br)cc(C#N)c1)[C@H]1CCC[C@@H]1O [Example 1.5.5, (2R,3R,4S,5R,6R)-N-(3-bromo-5-cyanophenyl)-4-(4-(4-chloro-3,5-difluorophenyl)-1H-1,2,3-triazol-1-yl)-5-hydroxy-N-((1S,2S)-2-hydroxycyclopentyl)-6-(hydroxymethyl)-3-methoxytetrahydro-2H-pyran-2-carboxamide]	33.9 nM
CO[C@@H]1[C@@H](n2cc(-c3cc(F)c(Br)c(F)c3)nn2)[C@@H](O)[C@@H](CO)O[C@H]1C(=O)N(c1cc(Cl)cc(C#N)c1)[C@H]1CCC[C@@H]1O [Example 1.6.4, (2R,3R,4S,5R,6R)-4-(4-(4-bromo-3,5-difluorophenyl)-1H-1,2,3-triazol-1-yl)-N-(3-chloro-5-cyanophenyl)-5-hydroxy-N-((1S,2S)-2-hydroxycyclopentyl)-6-(hydroxymethyl)-3-methoxytetrahydro-2H-pyran-2-carboxamide]	28.6 nM
CO[C@@H]1[C@@H](n2cc(-c3cc(F)c(Br)c(F)c3)nn2)[C@@H](O)[C@@H](CO)O[C@H]1C(=O)N(c1cc(Cl)cc(C#N)c1)[C@@H]1CCC[C@H]1O [Example 1.6.4R, (2R,3R,4S,5R,6R)-4-(4-(4-bromo-3,5-difluorophenyl)-1H-1,2,3-triazol-1-yl)-N-(3-chloro-5-cyanophenyl)-5-hydroxy-N-((1R,2R)-2-hydroxycyclopentyl)-6-(hydroxymethyl)-3-methoxytetrahydro-2H-pyran-2-carboxamide]	214 nM
